The conditions of data set [1]: after oral RSV 75 mg/kg, athymic nude mice; cited from earlier work.
The conditions of data set [2]: rats, cited from earlier work.
For data set [3] the following is noted: oral administration to rats; cited from earlier work.
Data set [4] concerns db/db mice. The following applies: oral 50 mg/kg for 2–3 weeks; cited from earlier work.
A short description of data set [5]: DPPH radical scavenging activity. As to the method: DPPH radical scavenging activity was assayed following a previous report, with some modifications. […] DMSO was used instead of a sample solution in the blank group. […] The scavenging activity of the DPPH radical (%) was calculated with the following equation: (△A515blank − △A515sample) ÷ △A515blank × 100%. The IC50 of the DPPH radical scavenging activity of PIC and its analogs or that of Trolox was calculated from each linear equation by three test concentrations and their radical scavenging activities.
(In general: The DPPH test is a chemical assay of radical scavenging.)

Data set [6] concerns SH-SY5Y cells. Put plainly: Cytotoxicity on SH-SY5Y cells (MTT). The data set is classed as cell-based. The following applies: 1, 2, 5 and 10 μM, MTT (Figure S1). How it is done:
The human SH-SY5Y neuroblastoma cell lines (CRL-2266, Lot No. 58979771) were purchased from American Type Culture Collection (Manassas, VA, USA) and used as models to investigate PIC and its analogs for neuroprotective activities against Aβ-induced cell deaths and the stimulation of neurite outgrowths. The SH-SY5Y cells were grown in DMEM/F-12 medium supplemented with 10% FBS at 37 °C under a humidified atmosphere and 5% CO2 [41]. […]. The SH-SY5Y cells (10,000 cells/well) were seeded and cultured in a DMEM/F-12 medium containing 10% FBS for 24 h at 37 °C under a humidified atmosphere and 5% CO2. […] The medium was then removed, and 40 μg/mL Aβ peptide (25–35) (dissolved in PBS) or an equal aliquot of PBS was added to the medium for another 24 h culture. The MTT was used to evaluate cell viability, and the absorbance at 570 nm was determined. The DMSO used instead of the sample solution was blank (recognized as 100%), and each treatment was expressed as relative cell viability (%). […] To measure cell viability and quantify the neurite outgrowths of the treated SH-SY5Y in a 96-well plate, the neurite outgrowth staining kit (a two-color fluorescence assay kit) was used, following a previous report or the protocol in the manufacturer’s manual (publication number: MAN0007224), which included a cell membrane-stained fluorescent dye (orange-red fluorescence), a cell viability indicator (green fluorescence), and a reagent for background masking. The fluorescence ratios of Ex555nm/Em565nm and Ex495nm/Em515nm were determined for the neurite outgrowths and the cell viabilities, respectively. […]
The following supporting information can be downloaded at: https://www.mdpi.com/article/10.3390/antiox12071362/s1. […] The MTT was used to evaluate cell viability, and the absorbance at 570 nm was determined. The DMSO used instead of the sample solution was blank (recognized as 100%), and each treatment was expressed as relative cell viability (%). […]

In data set [7] the test system is LPS-treated Swiss albino mice. The note with it: 6-day treatment 2.5 mg/kg/day, LPS 0.8 mg/kg i.p.; cited from earlier work.
For data set [8], the target named is T1, recombinant human AChE (Homo sapiens, UniProt P22303).
T1 construct: purchased R&D Systems Inc. (Minneapolis, MN, USA)
Put plainly: AChE inhibitory activity in vitro (acetylthiocholine/DTNB). The data set is classed as biochemical. As to the method: Commercially synthesized acetylthiocholine iodide was hydrolyzed using AChE to release thiocholine, which was coupled with DTNB to generate the yellowish 5-thio-2-nitrobenzoate for in vitro AChE activity assays. For the AChE inhibitory activity assay, each analog was dissolved in the DMSO, and final concentrations of 100, 200, and 500 μM were used for comparisons. An equal volume of DMSO instead of the sample solution was used in the blank group and expressed as 100% AChE activity. […] AChE inhibition (%) was calculated as follows: [(A405blank − A405sample)/(A405blank)] × 100%.

Where [9] appears, read: co-administration of PIC and RSV, each at 180 μmol/kg.

Structures are written as SMILES. Where two headings read alike, the source gives them in different places.

T1 sequence (P22303 32-614): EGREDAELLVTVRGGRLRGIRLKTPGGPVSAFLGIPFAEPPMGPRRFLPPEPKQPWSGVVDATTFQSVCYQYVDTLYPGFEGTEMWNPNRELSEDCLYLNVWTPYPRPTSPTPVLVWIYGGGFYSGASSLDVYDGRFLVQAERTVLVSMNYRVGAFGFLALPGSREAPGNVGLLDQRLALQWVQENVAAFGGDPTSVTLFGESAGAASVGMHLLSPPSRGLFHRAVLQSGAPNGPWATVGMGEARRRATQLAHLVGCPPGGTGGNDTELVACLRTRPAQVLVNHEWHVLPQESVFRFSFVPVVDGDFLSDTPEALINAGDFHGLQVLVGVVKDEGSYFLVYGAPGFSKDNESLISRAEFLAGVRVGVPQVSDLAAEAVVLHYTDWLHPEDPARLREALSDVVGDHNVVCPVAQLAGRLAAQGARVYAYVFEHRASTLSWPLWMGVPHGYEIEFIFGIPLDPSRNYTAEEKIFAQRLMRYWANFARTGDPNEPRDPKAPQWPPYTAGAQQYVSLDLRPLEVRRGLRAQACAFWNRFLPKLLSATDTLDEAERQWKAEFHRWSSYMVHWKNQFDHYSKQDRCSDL

Take `Oc1cc(O)cc(C=Cc2ccc(O)c(O)c2)c1` [PIC, 3,5,3′,4′-tetrahydroxystilbene]: the “PIC detected in the liver” value in data set [1] is 11.50 nmol/g. In addition, the “PIC detected in the plasma” value in data set [1] is 5.25 µmol/L. The “PIC detected in the skin” value in data set [1] is 2.4 nmol/g. Moreover, the “AUC0–8h of intact PIC/AUC0–8h of total PIC metabolites” value is reported as 18.6% in data set [2] (PIC 90 μmol/kg), 23.9% in data set [2] (PIC 180 μmol/kg), 25.1% in data set [2] (PIC 360 μmol/kg) and 16.3% in data set [2] (setting [9]). Moreover, the “AUC0–8h in plasma, intact compound” value in data set [2] (setting [9]) was 8.6 µM·h; in data set [2] (intragastric, 90 μmol/kg) it was 4.3 µM·h; in data set [2] (intragastric, 180 μmol/kg) it was 12.3 µM·h; in data set [2] (intragastric, 360 μmol/kg), 20.6 µM·h. In addition, the bioavailability in data set [3] is recorded as 50.7%. The half-life in data set [3] is listed as 4.23 h. The blood glucose levels result in data set [4] is “reduce blood glucose levels”. The IC50 in data set [5] (120 μM DPPH in methanol, 37 °C, 20 min) is 40.2 µM; in data set [8], 282 µM. Also, in data set [5] (ratio of IC50, vs RSV), the “DPPH scavenging capacity, fold higher than that of RSV” value is given as 2.5 fold. Besides, the “DPPH scavenging capacity, fold higher than that of Trolox” value in data set [5] (ratio of IC50, vs Trolox) is reported as 2.07 fold. Moreover, the “cytotoxicity on SH-SY5Y cells” value in data set [6] is recorded as “insignificant cytotoxicity”. For the same compound, in data set [7], the “Aβ levels in brain extracts” value was “reduce Aβ levels in brain extracts”. Also, the “learning and memory functions” value in data set [7] is given as “ameliorate”. Moreover, in data set [8] (vs RSV), the “AChE inhibitory capacity, fold higher than that of RSV” value is 1.23 fold.

In general, bioavailability refers to dose-corrected exposure relative to a reference, in per cent. Usually half-life stands for the time in which the quantity being followed falls by half. As a reminder, the IC50 is the midpoint of a concentration-inhibition curve.

The values are drawn from publication PMC10376691, “Inhibition of Acetylcholinesterase and Amyloid-β Aggregation by Piceatannol and Analogs: Assessing In Vitro and In Vivo Impact on a Murine Model of Scopolamine-Induced Memory Impairment” (Antioxidants, 2023).
